Results reported in patent publication US9045474B2, “Compounds and compositions for mitigating tissue damage and lethality” (The Regents of the University of California, priority 2010, dated 2015).

Key:
[1] = Mitigation assay of analogs at +30 min and +60 min after 8 Gy IR; conditions: FIG. 20
Procedure: Fourteen analogs of Yel001 and Yel002, whose structures are shown in FIGS. 19A and 19B, are subject to tests in a mitigation assay at +30 min and +60 min after 8 Gy radiation (IR).

C3H mice = test: Mitigation of radiation-induced lethality in C3H mice (8Gy, LD100/30); conditions: 8Gy
Procedure: Radiomitigation studies were conduced by pre-treating C3H mice with the compounds of interest at as concentration of 75 mg/kg and at 24 hrs and 1 hr before an 8 Gy exposure. On a 5×24 mitigation treatment protocol mice were first lethally irradiated with 8 Gy and 24 hrs later received the first subcutaneous injection with the compound suspension with subsequent injections at 48, 72, 96, and 120 hrs. The concentration of the compound in the suspension was 75 mg/kg carrier with either 1N saline or phosphate buffer solution (PBS).
C3H mice in the mitigation experiment were irradiated with 8Gy and then injected with 75 mg/kg 1 hr post exposure and then again 25 hrs post exposure.

Cc1sc(NC(=O)CN(Cc2ccco2)C(=O)c2ccccc2)c(C(N)=O)c1C [CJ010]
mitigation of IR damage [1]: consistently mitigates the IR damage
mitigation efficacy (C3H mice; 75 mg/kg s.c. 5×24 protocol): significantly mitigated IR-induced damages and death
survival at 30 days (C3H mice; 75 mg/kg s.c. at 24, 48, 72, 96, 120 hrs (5×24)): 75%
